Results from patent US20230331720A1, “MEDIUM- OR MACRO-CYCLIC BENZYL-SUBSTITUTED HETEROCYCLE DERIVATIVES AND THEIR USES AS OREXIN-2 RECEPTOR AGONISTS” (Orexia Therapeutics Limited, priority 2020, published 2023).

Biological target: T1, human orexin type 2 receptor (hOX2R) (Homo sapiens, UniProt O43614)
T1 construct: expressed in transfected cells
T1 sequence (O43614 1-444): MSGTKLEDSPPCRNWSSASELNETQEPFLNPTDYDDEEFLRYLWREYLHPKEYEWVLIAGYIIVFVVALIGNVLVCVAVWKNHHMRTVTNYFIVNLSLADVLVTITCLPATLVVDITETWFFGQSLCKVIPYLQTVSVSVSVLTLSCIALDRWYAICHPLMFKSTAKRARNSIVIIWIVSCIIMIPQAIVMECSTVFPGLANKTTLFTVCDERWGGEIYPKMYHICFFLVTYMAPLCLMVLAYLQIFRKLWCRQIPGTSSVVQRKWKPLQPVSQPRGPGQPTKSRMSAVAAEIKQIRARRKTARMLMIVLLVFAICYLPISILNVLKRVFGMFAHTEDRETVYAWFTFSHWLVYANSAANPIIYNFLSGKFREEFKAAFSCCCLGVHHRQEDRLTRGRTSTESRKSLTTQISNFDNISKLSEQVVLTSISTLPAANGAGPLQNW
Assay: Orexin type 2 receptor agonist activity, intracellular Ca2+ (FLIPR TETRA)
Format: cell-based
Conditions: CHO cells expressing hOX2R; Ca2+ fluorescence area; read-out: hOx2 pEC50 (converted)
Experimental: Stable cell line generation. Obtainment of cells stably expressing either human orexin type 2 or human orexin type 1 receptor; to obtain a stable cell line the Orexin receptor cDNA was inserted into pcDNA3.1(+) plasmid vector and clones identified by G418 drug resistance selection. […] A single clone for OX2R-CHO and OX1R-CHO were grown in bulk and frozen to generate a cell bank for routine screening.
Measurement of orexin type 2 receptor agonist activity. Chinese hamster ovary (CHO) cells expressing human orexin type 2 receptor (hOX2R) or human orexin type 1 receptor (hOX1R) were seeded in each well of 384 well black clear bottom plates (BD Flacon) at 10,000 cells per well and cultured for 24 hr in an Ham's F12 (Gibco) medium containing 10% fetal calf serum (Sigma Aldrich) under the conditions of 37° C., 5% CO2. After removal of the medium, 50 μl of assay buffer 1 (0.1% bovine serum albumin (Sigma Aldrich), 20 mM HEPES (Molecular Dimensions), […] probenecid (Sigma Aldrich), 1× Calcium 5 dye (Molecular Devices) in Hank's balanced salt solution (Invitrogen)) was added, and the cells were incubated for 60 min under the conditions of 37° C., 5% CO2. A test compound was dissolved in dimethyl sulfoxide (Sigma Aldrich) to 10 mM, and then diluted with assay buffer 2 (20 mM HEPES, Hank's balanced salt solution, 0.1% bovine serum albumin). For the reaction, a test compound solution (10 μl) was added using Fluorescent Imaging Plate Reader TETRA (FLIPR TETRA: manufactured by Molecular Devices), a fluorescence value (excitation wavelength 488 nm, measurement wavelength 570 nm) of each well was measured every one second for 2 min, and the agonist activity was determined using the area of the fluorescence value as an indicator of intracellular Ca^2+ concentration. The agonist activity of the test compound was calculated assuming that the fluorescence value of the well added with only the dilution buffer was 0% and the fluorescence value of the well added with 10 nM human orexin A (Tocris) buffer was 100%. As used herein, Emax indicates the value at 10 μM concentration when orexin A is converted to a full agonist (maximum value of agonist activity: 100%).

EC50 [nM] | SMILES
100 to 1000 | CS(=O)(=O)NC1CCCN2C(=O)CCCCc3ccccc3-c3cccc(c3)CC12 (racemic) [Compound A1-1, N-(5-oxo-4(2,1)-piperidina-1(1,2),2(1,3)-dibenzenacyclononaphane-4^3-yl)-methanesulfonamide]
100 to 1000 | CN1CCOc2ccccc2-c2cccc(c2)CC2C(NS(C)(=O)=O)CCCN2C1=O (racemic) [Compound A1-2, N-(6-methyl-5-oxo-9-oxa-6-aza-4(2,1)-piperidina-1(1,2),2(1,3)-dibenzena-cyclo-nonaphane-4^3-yl)methanesulfonamide]
10 to 100 | CS(=O)(=O)N[C@@H]1CCCN2C(=O)CCCOc3ccccc3-c3cccc(c3)C[C@H]12 (racemic) [Compound A1-6, N-(5-oxo-9-oxa-4(2,1)-piperidina-1(1,2),2(1,3)-dibenzenacyclononaphane-4^3-yl)methanesulfonamide]
10 to 100 | CS(=O)(=O)NC1CCN2C(=O)N3CC(CCc4ccccc4-c4cccc(c4)CC12)C3 (racemic) [Compound A1-13, N-(5-oxo-4-(2,1)-pyrrolidina-6-(1.3)-azetidina-1-(1,2),2-(1,3)-dibenzena-cyclooctaphane-4^3-yl)methanesulfonamide]
10 to 100 | CS(=O)(=O)NC1CCN2C(=O)N3CC(CCCc4ccccc4-c4cccc(c4)CC12)C3 (racemic) [Compound A1-14, N-(5-oxo-4(2,1)-pyrrolidina-6(1,3)-azetidina-1(1,2),2(1,3)-dibenzenacyclo-nonaphane-4^3-yl)methanesulfonamide]
1 to 10 | CS(=O)(=O)NC1CCCN2C(=O)NCCOc3ccccc3-c3cccc(c3)CC12 (racemic) [Compound A1-15, N-(5-oxo-9-oxa-6-aza-4(2,1)-piperidina-1(1,2),2(1,3)-dibenzenacyclo-nonaphane-4^3-yl)methanesulfonamide]
1 to 10 | CCS(=O)(=O)NC1CCN2C(=O)N(C)CCCCCc3ccccc3-c3cccc(c3)CC12 (racemic) [Compound A1-18, N-(6-methyl-5-oxo-6-aza-4(2,1)-pyrrolidina-1(1,2),2(1,3)-dibenzenacyclo-undecaphane-43-yl)ethanesulfonamide]
100 to 1000 | CCS(=O)(=O)NC1CCN2C(=O)CCCc3ccccc3-c3cccc(c3)CC12 (racemic) [Compound A1-19, N-(5-oxo-4(2,1)-pyrrolidina-1(1,2),2(1,3)-dibenzenacyclooctaphane-4^3-yl)ethanesulfonamide]
1 to 10 | CS(=O)(=O)NC1CCCN2C(=O)NCCCCCc3ccccc3-c3cccc(c3)CC12 (racemic) [Compound A1-27, N-(5-oxo-6-aza-4(2,1)-piperidina-1(1,2),2(1.3)-dibenzenacyclo-undecaphane-4^3-yl)methanesulfonamide]
10 to 100 | CS(=O)(=O)NC1CCCN2C(=O)CCCCCCc3ccccc3-c3cccc(c3)CC12 (racemic) [Compound A1-28, N-(5-oxo-4(2,1)-piperidina-1(1,2),2(1,3)-dibenzenacycloundecaphane-4^3-yl)methanesulfonamide]
10 to 100 | CCS(=O)(=O)NC1CCN2C(=O)NCCOc3ccccc3-c3cccc(c3)CC12 (racemic) [Compound A1-30, N-(5-oxo-9-oxa-6-aza-4(2,1)-pyrrolidina-1(1,2),2(1,3)-dibenzenacyclo-nonaphane-4^3-yl)ethanesulfonamide]
100 to 1000 | CCS(=O)(=O)NC1CCN2C(=O)CCCOc3ccccc3-c3cccc(c3)CC12 (racemic) [Compound A1-31, N-(5-oxo-9-oxa-4(2,1)-pyrrolidina-1(1.2),2(1,3)-dibenzenacyclo-nonaphane-4^3-yl)ethanesulfonamide]

The remaining lines, values behind:

SMILES | EC50 [nM]
CCS(=O)(=O)NC1CCN2C(=O)CCC/C=C/c3ccccc3-c3cccc(c3)CC12 (mixture of isomers) [Compound A1-36, (E/Z)—N-(5-oxo-4(2,1)-pyrrolidina-1(1,2),2(1,3)-dibenzenacyclodecaphan-9-en-4^3-yl)ethanesulfonamide] | 100 to 1000
CCS(=O)(=O)NC1CCN2C(=O)NCCCCCc3c(F)cc(F)cc3-c3cccc(c3)CC12 (racemic) [Compound A1-16, N-(1^3,1^5-difluoro-5-oxo-6-aza-4(2,1)-pyrrolidina-1-(1,2),2-(1,3)-dibenzena-cycloundecaphane-4^3-yl)ethanesulfonamide] | 10 to 100
CCS(=O)(=O)NC1CCN2C(=O)CCOCCCc3ccccc3-c3cccc(c3)CC12 (racemic) [Compound A1-20, N-(5-oxo-8-oxa-4(2,1)-pyrrolidina-1(1,2),2(1,3)-dibenzenacyclo-undecaphane-4^3-yl)ethanesulfonamide] | 100 to 1000
CCS(=O)(=O)NC1CCN2C(=O)CC/C=C\c3ccccc3-c3cccc(c3)CC12 (racemic) [Compound A1-26, (E/Z)—N-(5-oxo-4(2,1)-pyrrolidina-1(1,2),2(1,3)-dibenzenacyclononaphan-8-en-4^3-yl)ethanesulfonamide] | 100 to 1000
CCS(=O)(=O)NC1CCN2C(=O)CCCCCCc3c(F)cc(F)cc3-c3cccc(c3)CC12 (racemic) [Compound A1-29, N-(1^3,1^5-difluoro-5-oxo-4(2,1)-pyrrolidina-1(1,2),2(1,3)-dibenzenacyclo-undecaphane-4^3-yl)ethanesulfonamide] | 100 to 1000
CCS(=O)(=O)NC1CCN2C(=O)CCCCCCc3ccccc3-c3cccc(c3)CC12 (racemic) [Compound A1-39, N-(5-oxo-4(2,1)-pyrrolidina-1(1,2),2(1,3)-dibenzenacycloundecaphane-4^3-yl)ethanesulfonamide] | 1 to 10
CCS(=O)(=O)NC1CCN2C(=O)CCC/C=C/Cc3ccccc3-c3cccc(c3)CC12 (racemic) [Compound A1-41, (E/Z)—N-(5-oxo-4(2,1)-pyrrolidina-1(1.2),2(1,3)-dibenzenacyclo-undecaphan-9-en-4^3-yl)ethanesulfonamide] | 10 to 100
CCS(=O)(=O)NC1CCN2C(=O)CCCCCc3ccccc3-c3cccc(c3)CC12 (racemic) [Compound A1-48, N-(5-oxo-4(2,1)-pyrrolidina-1(1,2),2(1,3)-dibenzenacyclodecaphane-4^3-yl)ethanesulfonamide] | 10 to 100
CCS(=O)(=O)NC1CCN2C(=O)NCCCCc3ccccc3-c3cccc(c3)CC12 (racemic) [Compound A1-49, N-(5-oxo-6-aza-4(2,1)-pyrrolidina-1(1,2),2(1,3)-dibenzenacyclodecaphane-4^3-yl)ethanesulfonamide] | 10 to 100
CCS(=O)(=O)NC1CCN2C(=O)NCCCCCc3ccccc3-c3cccc(c3)CC12 (racemic) [Compound A1-50, N-(5-oxo-6-aza-4(2,1)-pyrrolidina-1(1,2),2(1,3)-dibenzenacyclo-undecaphane-43-yl)ethanesulfonamide] | 1 to 10
CCS(=O)(=O)NC1CCN2C(=O)NC/C=C/Cc3ccccc3-c3cccc(c3)CC12 (racemic) [Compound A1-51, (E/Z)—N-(5-oxo-6-aza-4(2,1)-pyrrolidina-1(1,2),2(1.3)-dibenzenacyclo-decaphan-8-en4^3-yl)ethanesulfonamide] | 10 to 100
CCS(=O)(=O)NC1CCN2C(=O)NCC/C=C/Cc3ccccc3-c3cccc(c3)CC12 (racemic) [Compound A1-52, (E/Z)—N-(5-oxo-6-aza-4(2,1)-pyrrolidina-1(1,2),2(1.3)-dibenzenacyclo-undecaphan-9-en-43-yl)ethanesulfonamide] | 1 to 10
CCS(=O)(=O)NC1CCN2C(=O)CC/C=C/Cc3ccccc3-c3cccc(c3)CC12 (racemic) [Compound A1-53, (E/Z)—N-(5-oxo-4(2,1)-pyrrolidina-1(1,2),2(1,3)-dibenzenacyclodecaphan-8-en-4^3-yl)ethanesulfonamide] | 10 to 100
CCS(=O)(=O)NC1CCN2C(=O)OCCCCCc3ccccc3-c3cccc(c3)CC12 (racemic) [Compound A1-54, N-(5-oxo-6-oxa-4(2,1)-pyrrolidina-1(1,2),2(1.3)-dibenzenacyclo-undecaphane-4^3-yl)ethanesulfonamide] | 10 to 100
CCS(=O)(=O)NC1CCN2C(=O)OCC/C=C\Cc3ccccc3-c3cccc(c3)CC12 (racemic) [Compound A1-56, (E/Z)—N-(5-oxo-6-oxa-4(2,1)-pyrrolidina-1(1,2),2(1,3)-dibenzenacyclo-undecaphan-9-en-4^3-yl)ethanesulfonamide] | 100 to 1000
